This note sets out measurements from ChEMBL document CHEMBL5604063, “ASAP - DENV-2 NS2B-NS3 protease fluorescence dose response” (2024).

pIC50: −log10 of the molar value. Values joined by “and” are separate entries in the source; they are usually repeats but may differ in a detail not shown here. Equal entries are not always repeated.

The target in assay [1] is T1, Genome polyprotein (dengue virus type 2, UniProt P29990). The format is functional, Thailand/16681/1984.
The target in assay [2] is T1, Genome polyprotein. The format is functional, Thailand/16681/1984. This is another data set of the same source.

T1 sequence (P29990 1346-1475 limits assumed): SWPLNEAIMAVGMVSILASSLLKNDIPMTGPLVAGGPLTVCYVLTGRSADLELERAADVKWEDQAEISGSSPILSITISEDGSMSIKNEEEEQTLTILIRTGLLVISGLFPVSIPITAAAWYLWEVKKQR
T1 sequence (P29990 1476-2093 limits assumed): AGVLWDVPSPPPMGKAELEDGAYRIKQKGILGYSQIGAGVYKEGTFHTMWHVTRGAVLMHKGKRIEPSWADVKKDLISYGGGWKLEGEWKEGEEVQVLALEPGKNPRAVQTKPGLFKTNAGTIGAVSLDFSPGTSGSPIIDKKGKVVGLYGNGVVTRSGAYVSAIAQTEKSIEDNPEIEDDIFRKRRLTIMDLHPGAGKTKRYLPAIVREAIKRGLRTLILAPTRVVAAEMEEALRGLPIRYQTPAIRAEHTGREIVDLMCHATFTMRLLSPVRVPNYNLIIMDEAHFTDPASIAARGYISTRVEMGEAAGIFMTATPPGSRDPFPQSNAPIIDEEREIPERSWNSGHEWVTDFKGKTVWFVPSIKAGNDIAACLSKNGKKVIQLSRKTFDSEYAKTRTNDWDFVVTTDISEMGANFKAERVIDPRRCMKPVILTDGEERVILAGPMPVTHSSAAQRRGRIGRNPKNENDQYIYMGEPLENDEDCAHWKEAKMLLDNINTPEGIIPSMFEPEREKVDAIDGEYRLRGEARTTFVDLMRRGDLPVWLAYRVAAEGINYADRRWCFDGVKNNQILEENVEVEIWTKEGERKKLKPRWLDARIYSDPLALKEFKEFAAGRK

Broadly, the pIC50 is the negative decadic logarithm of the IC50, by convention in mol/L. Lower therefore signals a high IC50. For the compound `NCc1cccc(NC(=O)c2cc(Cl)cc3c2OCCNC3)c1`, the negative logarithm of the IC50 (pIC50) at Genome polyprotein [1] and at Genome polyprotein [2] was below 4.00 throughout.

For `O=C(Nc1ccc2c(c1)CN[C@H]2C[C@H](O)CO)c1cc(F)cc2[nH]ncc12`, the pIC50 at Genome polyprotein [1] is 4.63 and 4.66; on Genome polyprotein [2], 4.40.

In the case of `Cc1c(C(=O)Nc2cc(C3(C)OCCO3)ccn2)cc(C2CC2)n1C`, the pIC50 on Genome polyprotein [1] and on Genome polyprotein [2] was below 4.00 throughout.

Regarding `CC(C)(C)OC(=O)N1Cc2ccc(N[C@H](C(=O)O)c3cc(Cl)cc4[nH]ncc34)cc2C1`, the pIC50 at Genome polyprotein [1] is 4.24 and 4.38; against Genome polyprotein [2] it was 4.11.

`CCc1ncc(Cl)cc1C(=O)Nc1ccc2c(c1)CNC2`: the pIC50 against Genome polyprotein [1] and at Genome polyprotein [2] was below 4.00 throughout.

Turning to `NCc1cccc(NC(=O)[C@@H](NC(=O)OCc2ccccc2)c2cccc(-c3ccc(CN)cc3F)c2)c1`, the pIC50 on Genome polyprotein [1] and against Genome polyprotein [2] was below 4.00 in each case.

Consider `NCc1cccc(NC(=O)c2cc3c(F)cc(F)c(F)c3[nH]2)c1`, for which the pIC50 against Genome polyprotein [1] and at Genome polyprotein [2] was below 4.00 each time.

Regarding `CS(=O)(=O)Nc1c(Cl)cc(Cl)cc1C(=O)Nc1cccc(CN)c1`, the pIC50 against Genome polyprotein [1] and at Genome polyprotein [2] was below 4.00 in each case.

For the compound `NC1CN(c2ncccc2NS(=O)(=O)c2ccc(Oc3ccccc3Cl)cc2)C1`, the pIC50 at Genome polyprotein [1] and against Genome polyprotein [2] was below 4.00 each time.

`NCc1cccc(NC(=O)c2nc(=O)cc(NC(=O)OCc3ccccc3)[nH]2)c1`: the pIC50 on Genome polyprotein [1] and on Genome polyprotein [2] was below 4.00 in each case.

Regarding `O=C(Nc1ccc2c(c1)CNC2)c1ncnc2sccc12`, the pIC50 against Genome polyprotein [1] and against Genome polyprotein [2] was below 4.00 throughout.

Take `N#CCc1cc(NC(=O)c2cc(F)cc3[nH]ncc23)cc2c1CNC2`: the pIC50 against Genome polyprotein [1] was 4.42 and 4.72; against Genome polyprotein [2] it was 4.63.

Regarding `N#C[C@H](Nc1cc(Cl)cc(NC(=O)OCc2ccccc2)c1)c1ccc(-c2nn[nH]n2)cc1`, the pIC50 is 5.16 and 5.25 on Genome polyprotein [1]; 5.02 on Genome polyprotein [2].

Take `Cc1c(C(=O)Nc2cc(CN(C)C)ccn2)cc(C2CC2)n1C`: the pIC50 at Genome polyprotein [1] and against Genome polyprotein [2] was below 4.00 throughout.

With `Cc1c(C(=O)Nc2cc(C(=O)N3CC[C@H]3CO)ccn2)cc(C2CC2)n1C`, the pIC50 against Genome polyprotein [1] and on Genome polyprotein [2] was below 4.00 each time.

Regarding `Cc1c(C(=O)Nc2cc(C#N)cn(C)c2=O)cc(C2CC2)n1C`, the negative-log IC50 (pIC50) against Genome polyprotein [1] and against Genome polyprotein [2] was below 4.00 in each case.

`C[C@](C#N)(Nc1ccc2c(c1)CNC2)c1cccc(Cl)c1`: the pIC50 against Genome polyprotein [1] and against Genome polyprotein [2] was below 4.00 in each case.

As to `O=C(Nc1ccc2c(c1)CNC2)c1cc(Cl)cc2[nH]c(-c3cccc(F)c3)nc12`, the pIC50 on Genome polyprotein [1] is 4.76 and 4.89; at Genome polyprotein [2], 5.58.

In the case of `Clc1cc([C@H](C#Cc2ccccc2)Nc2ccc3c(c2)CNC3)c2cn[nH]c2c1`, the results for the pIC50 at Genome polyprotein [1] and at Genome polyprotein [2] were 4.05 and below 4.00, respectively.

By IC50 is commonly meant the concentration that gives 50% inhibition. Lower therefore signals higher potency. In the case of `N=C(N)NCCC[C@H](NC(=O)[C@H](Cc1ccc(CN)cc1)NC(=O)c1ccccc1)B(O)O`, the IC50 was 305 nM and 257 nM and 222 nM and 304 nM and 397 nM and 347 nM and 311 nM and 370 nM and 386 nM and 288 nM and 401 nM (2×) and 387 nM and 378 nM and 379 nM and 356 nM and 445 nM and 309 nM and 358 nM (2×) and 321 nM and 398 nM and 512 nM and 367 nM and 298 nM and 273 nM and 243 nM and 437 nM and 458 nM and 503 nM and 302 nM and 267 nM and 516 nM and 409 nM and 384 nM and 328 nM and 540 nM and 421 nM at Genome polyprotein [1]; 720 nM and 583 nM and 818 nM and 732 nM and 585 nM and < 2.49 µM (9×) and 276 nM and 270 nM and 274 nM and 310 nM and 236 nM and 572 nM and 397 nM and 474 nM and 507 nM and 265 nM at Genome polyprotein [2].

With `NCc1cccc(NC(=O)c2cc(Cl)cc(Cl)c2)c1`, the pIC50 at Genome polyprotein [1] and against Genome polyprotein [2] was below 4.00 each time.

In the case of `CS(=O)(=O)c1cncc(-c2cc(F)cc(C(=O)Nc3ccc4c(c3)CNC4)c2)c1`, the pIC50 at Genome polyprotein [1] and against Genome polyprotein [2] was below 4.00 each time.

With `O=C(Nc1ccc2c(c1)CNC2)c1ccc2c(c1)C1(CC1)C(=O)N2`, the pIC50 against Genome polyprotein [1] and against Genome polyprotein [2] was below 4.00 in each case.

Regarding `Cc1cc(C(=O)Nc2cccc(CN)c2)c2c(C)nn(CC(=O)NC(C)C)c2n1`, the pIC50 at Genome polyprotein [1] and on Genome polyprotein [2] was below 4.00 in each case.

Regarding `NCc1cccc(NC(=O)c2cc(NC(=O)OCc3ccccc3)cc(C(F)(F)F)c2)c1`, the pIC50 on Genome polyprotein [1] and on Genome polyprotein [2] was below 4.00 in each case.

As to `Cn1cc(NC(=O)c2cc(Cl)cc(NC(=O)OCc3ccccc3)c2)cn1`, the pIC50 against Genome polyprotein [1] and at Genome polyprotein [2] was below 4.00 in each case.

Turning to `NCc1ccccc1C(=O)Nc1ccc2c(c1)C(=O)OC2`, the pIC50 against Genome polyprotein [1] and against Genome polyprotein [2] was below 4.00 in each case.

Regarding `CN(C)Cc1cccc(C(=O)Nc2cccc(CN)c2)c1`, the pIC50 at Genome polyprotein [1] and at Genome polyprotein [2] was below 4.00 throughout.

Regarding `NCc1cccc(NC(=O)[C@H](NC(=O)OCc2ccccc2)C2CCN(S(=O)(=O)c3ccccc3)CC2)c1`, the pIC50 against Genome polyprotein [1] and against Genome polyprotein [2] was below 4.00 throughout.

Turning to `Cn1ncc(CN2CCC([C@H](NC(=O)OCc3ccccc3)C(=O)Nc3cccc(CN)c3)CC2)n1`, the pIC50 on Genome polyprotein [1] and against Genome polyprotein [2] was below 4.00 each time.

Regarding `O=C(NCC(F)F)[C@H](Nc1ccc2c(c1)CNC2)c1cc(Cl)ccc1OC[C@H]1CCCO1`, the negative-log IC50 (pIC50) against Genome polyprotein [1] and on Genome polyprotein [2] was below 4.00 in each case.

As to `N#Cc1cc(-c2ccc3[nH]c(C(=O)O)cc3c2)cc(N2CCCC2)c1`, the pIC50 was below 4.00 against Genome polyprotein [1] and 4.20 against Genome polyprotein [2].

With `Cc1cc(C(F)(F)F)nc(C(=O)Nc2cccc(CN)c2)n1`, the pIC50 on Genome polyprotein [1] and against Genome polyprotein [2] was below 4.00 each time.

With `O=C(NCC(F)F)[C@H](Nc1ccc2c(c1)CNC2)c1cc(Cl)cc(Cl)c1OCCN1CCOCC1`, the pIC50 against Genome polyprotein [1] and at Genome polyprotein [2] was below 4.00 throughout.

`CC(C)c1cc(NC(=O)OCc2ccccc2)cc(C(=O)Nc2cccc(CN)c2)c1`: the values for the negative-log IC50 (pIC50) at Genome polyprotein [1] and at Genome polyprotein [2] were below 4.00 and 4.17, respectively.

Consider `CC1(C)C[C@H](C(=O)Nc2ccc3c(c2)C(=O)OC3)CCN1`, for which the pIC50 against Genome polyprotein [1] and against Genome polyprotein [2] was below 4.00 in each case.

`Nc1ccc(NC(=O)c2cc(Cl)cc3[nH]ncc23)cn1`: the negative logarithm of the IC50 (pIC50) against Genome polyprotein [1] and on Genome polyprotein [2] was below 4.00 throughout.

Turning to `CNC(=O)CN1CCC([C@@H](NC(=O)OCc2ccccc2)C(=O)Nc2cccc(CN)c2)CC1`, the pIC50 against Genome polyprotein [1] and at Genome polyprotein [2] was below 4.00 each time.

Take `O=C(Nc1cc(Cl)cc(C(=O)Nc2ccccc2[C@@H]2C[C@H]2C(=O)O)c1)OCc1ccccc1`: the pIC50 against Genome polyprotein [1] and on Genome polyprotein [2] was below 4.00 throughout.

Regarding `O=C(Nc1ccc2c(c1)CNC2)c1cc(Cl)cc2ccccc12`, the negative-log IC50 (pIC50) against Genome polyprotein [1] and at Genome polyprotein [2] was below 4.00 throughout.

With `O=C(Nc1ccc2c(c1)CNC2)c1cc(F)cc(-c2cn[nH]c2)c1`, the pIC50 at Genome polyprotein [1] was 4.13; against Genome polyprotein [2], below 4.00.

As to `O=C(O)c1ccc2nc(Cc3c[nH]c4ccc(Cl)cc34)cn2c1`, the pIC50 on Genome polyprotein [1] and against Genome polyprotein [2] was below 4.00 each time.

`NCCc1cccc(NC(=O)[C@H]2[C@H]3CCCCC[C@H]3[C@H]2NC(=O)OCc2ccccc2)c1`: the pIC50 was 4.92 against Genome polyprotein [1]; 5.08 and 5.14 against Genome polyprotein [2].

Turning to `COc1c(C(=O)N(C)C)cc(Cl)cc1S(=O)(=O)Nc1cccc(-c2nnn[nH]2)c1`, the pIC50 at Genome polyprotein [1] and against Genome polyprotein [2] was below 4.00 throughout.

Take `Cc1c(C(=O)NCc2cccc(C3COC3)c2)cc(C2CC2)n1C`: the pIC50 on Genome polyprotein [1] and against Genome polyprotein [2] was below 4.00 in each case.

Regarding `Cn1nc(C2CC2)cc1C(=O)Nc1cc(-c2cccnc2)ccn1`, the negative logarithm of the IC50 (pIC50) against Genome polyprotein [1] and at Genome polyprotein [2] was below 4.00 in each case.

As to `Cn1nc([C@H](Nc2cc([C@H]3CCOC3)ccn2)C(F)(F)F)cc1C1CC1`, the pIC50 at Genome polyprotein [1] and on Genome polyprotein [2] was below 4.00 in each case.

With `CNC(=O)[C@H](Nc1ccc2c(c1)CNC2)c1cccc2[nH]ncc12`, the pIC50 on Genome polyprotein [1] was below 4.00; against Genome polyprotein [2] it was 4.09.

For `C[C@@H](N)c1cc(Cl)cc(C(=O)Nc2cccc(CN)c2)c1`, the pIC50 at Genome polyprotein [1] and against Genome polyprotein [2] was below 4.00 in each case.

Take `COc1cc(-c2cc(NC(=O)c3cc(F)cc4[nH]ncc34)cc3c2CNC3)ccn1`: the pIC50 on Genome polyprotein [1] was 4.54 and 4.14; at Genome polyprotein [2], 4.37 and 4.49.

For the compound `O=C1Cc2c(cccc2C(=O)Nc2ccc(-c3cccnc3)cn2)N1`, the pIC50 against Genome polyprotein [1] and on Genome polyprotein [2] was below 4.00 throughout.

Take `Cc1nnc(S(=O)(=O)N2CCC([C@H](NC(=O)OCc3ccccc3)C(=O)Nc3cccc(CN)c3)CC2)s1`: the negative logarithm of the IC50 (pIC50) against Genome polyprotein [1] and at Genome polyprotein [2] was below 4.00 in each case.

For `O=C(Nc1ccc2c(c1)CNC2)c1cc(F)cc(/C=C/c2ccccc2)c1`, the pIC50 against Genome polyprotein [1] is 4.24; against Genome polyprotein [2], 4.38.

With `O=C(Cn1ccnc(N2CC[C@H](CO)C2)c1=O)N[C@H]1CCOC1`, the negative-log IC50 (pIC50) at Genome polyprotein [1] and against Genome polyprotein [2] was below 4.00 each time.

As for `NCc1cccc(NC(=O)[C@@H]2[C@H](N)[C@@H]3CCCCC[C@@H]32)c1`, the pIC50 against Genome polyprotein [1] and on Genome polyprotein [2] was below 4.00 in each case.

In the case of `O=C(Nc1ccc2c(c1)CNC2)c1cccc2c1[C@]1(CCN(C(=O)OCc3ccccc3)C1)C(=O)N2`, the negative logarithm of the IC50 (pIC50) against Genome polyprotein [1] and against Genome polyprotein [2] was below 4.00 throughout.

As for `CNC(=O)C[C@H]1NCc2cc(NC(=O)c3cc(Cl)cc4[nH]ncc34)ccc21`, the pIC50 against Genome polyprotein [1] and against Genome polyprotein [2] was below 4.00 throughout.

Take `CCCN1C(=O)[C@](Nc2ccc3c(c2)CNC3)(C(=O)NC)c2cc(Cl)ccc21`: the pIC50 on Genome polyprotein [1] and against Genome polyprotein [2] was below 4.00 in each case.

As for `O=C(Nc1ccc2c(c1)CNC2)[C@H]1CCc2ccccc21`, the pIC50 against Genome polyprotein [1] and against Genome polyprotein [2] was below 4.00 each time.

As to `CN1C(=O)C[C@H](C(=O)Nc2cccc(CN)c2)[C@H]1c1ccc(Cl)c(Cl)c1`, the negative logarithm of the IC50 (pIC50) on Genome polyprotein [1] and on Genome polyprotein [2] was below 4.00 throughout.

`O=C(Nc1ccc2c(c1)CNC2)c1n[nH]c2ncc(Br)cc12`: the pIC50 on Genome polyprotein [1] and on Genome polyprotein [2] was below 4.00 in each case.

As for `CCn1ncc2c(C(=O)Nc3ccc4c(c3)CNC4)cc(C)nc21`, the pIC50 against Genome polyprotein [1] and on Genome polyprotein [2] was below 4.00 in each case.

Consider `C[C@H](NC(=O)c1cc(Cl)cc2[nH]ncc12)c1ccc2c(c1)CNC2`, for which the negative-log IC50 (pIC50) against Genome polyprotein [1] and against Genome polyprotein [2] was below 4.00 in each case.

`O=C(Nc1cc(Br)c2c(c1)CNC2)c1cc(F)cc2[nH]ncc12`: the pIC50 against Genome polyprotein [1] is 4.51 and 4.65; against Genome polyprotein [2], 4.39.

Regarding `CC(C)Cc1nc2c(C(=O)Nc3ccc4c(c3)CNC4)cc(Br)cc2[nH]1`, the pIC50 against Genome polyprotein [1] was below 4.00; on Genome polyprotein [2], 4.25.
